Test results: patent publication US20210378985A1, “METHOD AND COMPOUND FOR THE TREATMENT OF HEPATITIS C” (priority 2020, published 2021)

Key:
HIV-1 [1] = assay: Co-cultivation of HIV-1 infected cells with uninfected target cells; assay type: cell-based
Excerpt: Viral pathogenesis in co-cultivation of infected cells with uninfected target cells presents a complex system with several target sites (attachment, fusion, transcription, processing, packaging and budding).
In many documented antiretroviral studies, the co-culture system is conventionally used to isolate the virus as well as to study cell-to-cell transmission or to determine if a given compound blocks cell fusion.

HIV-1 [2] = assay: Cell-based time course study (mode of action); conditions: drug addition at various time points
Excerpt: The time course study may be an important tool for the determination of viral kinetics and drug mode of action. The dynamics of drug-virus interaction, competitive or non-competitive, kinetics provides a dose response curve from which a broad lead mechanism of action can be drawn. The dynamics of the interactions relate to the viral kinetic of infection and drug addition at various time points.

gamma interferon = assay: Gamma interferon production stimulated by 90I; assay type: cell-based; conditions: versus positive control PMA-Ionomycin combination
HCV subgenomic replicon = conditions: at both mRNA and protein level; cited from earlier work
[3] = system: core protein in Huh 7 cells; conditions: cited from earlier work

O=C(OCCOCCOC(=O)c1ccccc1)c1ccccc1 [Compound 90I, diethylene glycol dibenzoate]
syncytium formation (HIV-1 [1]): drastic drop of syncytium formation
cell viability (HIV-1 [1]; exponential cell growth dynamics): greater than ninety percent
mode of action (early/late) (HIV-1 [2]): works both early and late
amount of gamma interferon produced (gamma interferon): equivalent to that of the positive control

C[C@@H]1CC[C@@]2(OC1)O[C@H]1C[C@H]3[C@@H]4CC=C5C[C@@H](O)CC[C@]5(C)[C@H]4CC[C@]3(C)[C@H]1[C@@H]2C [Diosgenin]
replication of HCV subgenomic replicon (HCV subgenomic replicon): effectively blocked the replication of the HCV subgenomic replicon

O=C1C[C@@H](c2ccc(O)cc2)Oc2cc(O)cc(O)c21 [Naringenin]
activity of core protein ([3]; Huh 7 cells): suppressed the activity of core protein
assembly of HCV particles [3]: effectively blocked the assembly of HCV particles
